The structures appear in SMILES notation. Several values for one entry are separate records, joined by “and”; a condition that tells them apart may be missing. Equal values may be shown once. Inconclusive results and toxic doses are left out.

For the test, the system named is P388 leukemia ip, CD2F1 mice, survival T/C. Put plainly: NCI In Vivo Anticancer Drug Screen. Data for tumor model P388 Leukemia (intraperitoneal) in CD2F1 (CDF1) mice. As to conditions: endpoint: median survival time, higher = longer survival. An outline of the steps:
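Mice carrying the transplanted tumor received test compound or vehicle. Survival was recorded in each group, and the value is the treated-group measurement divided by that of the vehicle-treated control group.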

[1] abbreviates: dose: 60.0 mg/kg/injection, schedule: Q01DX005 (ip), vehicle: saline with Tween-80.
The mark [2] stands for this setting: dose: 120.0 mg/kg/injection, schedule: Q01DX005 (ip), vehicle: saline with Tween-80.
Setting [3] is: dose: 240.0 mg/kg/injection, schedule: Q01DX005 (ip), vehicle: saline with Tween-80.
Setting [4] is: dose: 50.0 mg/kg/injection, schedule: Q01DX009 (ip), vehicle: saline with Tween-80.
Where [5] appears, read: dose: 100.0 mg/kg/injection, schedule: Q01DX009 (ip), vehicle: saline with Tween-80.
Setting [6] is: dose: 200.0 mg/kg/injection, schedule: Q01DX009 (ip), vehicle: saline with Tween-80.
Where [7] appears, read: dose: 25.0 mg/kg/injection, schedule: Q01DX009 (ip), vehicle: Klucel (hydroxypropylcellulose) (HPC).
Setting [8] is: dose: 50.0 mg/kg/injection, schedule: Q01DX009 (ip), vehicle: Klucel (hydroxypropylcellulose) (HPC).
Setting [9] is: dose: 50.0 mg/kg/injection, schedule: Q01DX005 (ip), vehicle: Klucel (hydroxypropylcellulose) (HPC).
Where [10] appears, read: dose: 100.0 mg/kg/injection, schedule: Q01DX005 (ip), vehicle: Klucel (hydroxypropylcellulose) (HPC).
Where [11] appears, read: dose: 200.0 mg/kg/injection, schedule: Q01DX005 (ip), vehicle: Klucel (hydroxypropylcellulose) (HPC).
The mark [12] stands for this setting: dose: 50.0 mg/kg/injection, schedule: Q01DX005 (ip), vehicle: saline with Tween-80.
Where [13] appears, read: dose: 100.0 mg/kg/injection, schedule: Q01DX005 (ip), vehicle: saline with Tween-80.

Take `CC(C)(C)N1OC1C(Cl)(Cl)Cl` (configuration not stated): the T/C by setting is: under setting [1], 101 % of control; under setting [2], 104 % of control; under setting [3], 104 % of control.

On to `CC1=NN(C(=O)c2ccncc2)C(=O)C1N=Nc1ccc(S(=O)(=O)Nc2ccccn2)cc1` (configuration not stated), for which the T/C is, setting by setting: under setting [4], 92 % of control; under setting [5], 90 % of control; under setting [6], 103 % of control.

Regarding `CCOC(=O)N1C(=O)C2C3C=CC(C2C1=O)C1C2C(=O)N(C(=O)OCC)C(=O)C2C31` (configuration not stated), the T/C is, setting by setting: under setting [7], 116 % of control and 124 % of control; under setting [8], 121 % of control; (dose: 100.0 mg/kg/injection, schedule: Q01DX009 (ip), vehicle: Klucel (hydroxypropylcellulose) (HPC)) 152 % of control.

Turning to `CCOC(=O)c1c[nH]c2oc(/C=N/N3CC(CN4CCOCC4)OC3=O)cc2c1=O` (configuration not stated), the T/C is 114 % of control (dose: 50.0 mg/kg/injection, schedule: Q01DX005 (ip), vehicle: acid diluted with saline); 118 % of control (dose: 100.0 mg/kg/injection, schedule: Q01DX005 (ip), vehicle: acid diluted with saline); 113 % of control (dose: 100.0 mg/kg/injection, schedule: Q04DX002 (ip), vehicle: saline).

Consider `COc1ccc(-c2n[nH]c(-c3ccc(OC)cc3)c2N=Nc2ccc(S(=O)(=O)Nc3nnc(C)s3)cc2)cc1`, for which the T/C (dose: 100.0 mg/kg/injection, schedule: Q04DX002 (ip), vehicle: saline with Tween-80) was 103 % of control; the T/C (dose: 200.0 mg/kg/injection, schedule: Q04DX002 (ip), vehicle: saline with Tween-80) was 103 % of control; the T/C (dose: 400.0 mg/kg/injection, schedule: Q04DX002 (ip), vehicle: saline with Tween-80) was 94 % of control.

With `CN1CCc2nc(N)nc(-c3nc(N)nc4c3CN(C)CC4)c2C1`, the T/C runs as follows: (dose: 60.0 mg/kg/injection, schedule: Q01DX005 (ip), vehicle: saline) 100 % of control; (dose: 120.0 mg/kg/injection, schedule: Q01DX005 (ip), vehicle: saline) 104 % of control; (dose: 240.0 mg/kg/injection, schedule: Q01DX005 (ip), vehicle: saline) 106 % of control.

On to `CNC(=O)C1OCCOCCOC(C(=O)NC)C(C(=O)NC)OCCOCCOC1C(=O)NC` (configuration not stated), for which the T/C is, setting by setting: under setting [9], 96 % of control; under setting [10], 98 % of control; under setting [11], 97 % of control.

Take `COC(=O)C(CO)NC(=O)OCc1ccccc1` (configuration not stated): the T/C is 99 % of control (dose: 25.0 mg/kg/injection, schedule: Q01DX005 (ip), vehicle: water); 94 % of control (dose: 50.0 mg/kg/injection, schedule: Q01DX005 (ip), vehicle: water); 95 % of control (dose: 50.0 mg/kg/injection, schedule: Q01DX009 (ip), vehicle: distilled water + alcohol); 105 % of control (dose: 100.0 mg/kg/injection, schedule: Q01DX005 (ip), vehicle: water); 98 % of control (dose: 100.0 mg/kg/injection, schedule: Q01DX009 (ip), vehicle: distilled water + alcohol); 99 % of control (dose: 200.0 mg/kg/injection, schedule: Q01DX005 (ip), vehicle: water). Moreover, the T/C runs as follows: (dose: 200.0 mg/kg/injection, schedule: Q01DX009 (ip), vehicle: distilled water + alcohol) 100 % of control; (dose: 400.0 mg/kg/injection, schedule: Q01DX009 (ip), vehicle: distilled water + alcohol) 96 % of control.

Regarding `N#CC1=C2CCCCC2(O)NC1=O` (configuration not stated), the T/C by setting is: (dose: 6.25 mg/kg/injection, schedule: Q01DX005 (ip), vehicle: Klucel (hydroxypropylcellulose) (HPC)) 108 % of control; (dose: 12.5 mg/kg/injection, schedule: Q01DX005 (ip), vehicle: Klucel (hydroxypropylcellulose) (HPC)) 115 % of control.

As for `CC1=NN(C(=O)CC(=O)Nc2ccc(C(=O)O)cc2)C(=O)C1N=Nc1ccccc1C(=O)O` (configuration not stated), the T/C is 110 % of control under setting [12]; 111 % of control under setting [13]; 110 % of control (dose: 200.0 mg/kg/injection, schedule: Q01DX005 (ip), vehicle: saline with Tween-80).

For `C=C1CC[C@H]2C(C)=CC[C@@H]3[C@H](OC(=O)[C@H]3COC)[C@@H]12`, the T/C is 107 % of control (dose: 100.0 mg/kg/injection, schedule: Q01DX001 (ip), vehicle: saline); 97 % of control (dose: 200.0 mg/kg/injection, schedule: Q01DX001 (ip), vehicle: saline); 103 % of control (dose: 400.0 mg/kg/injection, schedule: Q01DX001 (ip), vehicle: saline).

With `CC1=C(C)C2C(=O)NC(=O)NC12` (configuration not stated), the T/C reads like this: (dose: 100.0 mg/kg/injection, schedule: Q01DX001 (ip), vehicle: Klucel (hydroxypropylcellulose) (HPC)) 100 % of control; (dose: 200.0 mg/kg/injection, schedule: Q01DX001 (ip), vehicle: Klucel (hydroxypropylcellulose) (HPC)) 91 % of control.

`CN=C([O-])c1c(=O)o[nH][n+]1-c1ccccc1`: the T/C under setting [1] was 95 % of control, the T/C under setting [2] is 98 % of control and the T/C under setting [3] is 94 % of control.

Turning to `O=CC1CO1` (configuration not stated), the T/C runs as follows: (dose: 12.5 mg/kg/injection, schedule: Q01DX009 (ip), vehicle: saline) 109 % of control; (dose: 12.5 mg/kg/injection, schedule: Q04DX003 (ip), vehicle: saline) 112 % of control; (dose: 25.0 mg/kg/injection, schedule: Q01DX009 (ip), vehicle: saline) 118 % of control; (dose: 25.0 mg/kg/injection, schedule: Q04DX003 (ip), vehicle: saline) 104 % of control; (dose: 50.0 mg/kg/injection, schedule: Q04DX003 (ip), vehicle: saline) 116 % of control.

In the case of `COc1ccc2cc3c(nc2c1N)C(=O)C(N1CC1)=C(N1CC1)C3=O`, the T/C (dose: 25.0 mg/kg/injection, schedule: Q01DX005 (ip), vehicle: Klucel (hydroxypropylcellulose) (HPC)) was 98 % of control; the T/C under setting [9] was 99 % of control; the T/C under setting [10] is 100 % of control; the T/C under setting [11] was 100 % of control.

Regarding `CC(=O)NCCSSSCCNC(C)=O`, the T/C by setting is: (dose: 50.0 mg/kg/injection, schedule: Q01DX005 (ip), vehicle: saline) 115 % of control; (dose: 100.0 mg/kg/injection, schedule: Q01DX005 (ip), vehicle: saline) 115 % of control.

Turning to `CN(C)CCCn1c(=O)nc2n(-c3ccccc3)c3ccccc3nc-2c1=O`, the T/C reads like this: (dose: 6.25 mg/kg/injection, schedule: Q01DX009 (ip), vehicle: Klucel (hydroxypropylcellulose) (HPC)) 100 % of control and 106 % of control; (dose: 12.5 mg/kg/injection, schedule: Q01DX009 (ip), vehicle: Klucel (hydroxypropylcellulose) (HPC)) 105 % of control; under setting [7], 109 % of control; under setting [8], 122 % of control.

For `CC(=O)NCC(C)c1ccccc1` (configuration not stated), the T/C (dose: 25.0 mg/kg/injection, schedule: Q01DX009 (ip), vehicle: saline with Tween-80) was 102 % of control.

Turning to `COc1ccc(C(=O)C(C)Sc2ccccc2)cc1OC` (configuration not stated), the T/C was 108 % of control (dose: 10.0 mg/kg/injection, schedule: Q01DX005 (ip), vehicle: Klucel (hydroxypropylcellulose) (HPC)); 105 % of control (dose: 20.0 mg/kg/injection, schedule: Q01DX005 (ip), vehicle: Klucel (hydroxypropylcellulose) (HPC)); 101 % of control (dose: 40.0 mg/kg/injection, schedule: Q01DX005 (ip), vehicle: Klucel (hydroxypropylcellulose) (HPC)).

Consider `N#Cc1c(N)nc2c(c1N)CCO2`, for which the T/C is 93 % of control under setting [4], 96 % of control under setting [5] and 99 % of control under setting [6].

As to `COC(=O)c1cc2cc(OC)c(OC)cc2c2ccccc12`, the T/C under setting [12] was 90 % of control and the T/C under setting [13] was 90 % of control.

Take `C[Si](C)(c1ccc(Cl)cc1)c1ccc(Cl)cc1`: the T/C reads like this: (dose: 50.0 mg/kg/injection, schedule: Q01DX009 (ip), vehicle: saline) 97 % of control; (dose: 100.0 mg/kg/injection, schedule: Q01DX009 (ip), vehicle: saline) 100 % of control; (dose: 200.0 mg/kg/injection, schedule: Q01DX009 (ip), vehicle: saline) 99 % of control.

Regarding `O=C1NC(=O)C2=C1CCC2`, the T/C is, setting by setting: (dose: 3.13 mg/kg/injection, schedule: Q01DX009 (ip), vehicle: distilled water + Tween-80) 98 % of control; (dose: 6.25 mg/kg/injection, schedule: Q01DX009 (ip), vehicle: distilled water + Tween-80) 104 % of control; (dose: 12.5 mg/kg/injection, schedule: Q01DX009 (ip), vehicle: distilled water + Tween-80) 114 % of control.

These data come from PubChem BioAssay AID330 (DTP/NCI, 2004).
